How the values were obtained:
[1] = system: Leptinotarsa decemlineata; assay: Insecticidal activity against adult Leptinotarsa decemlineata infested potato leaves assessed as mortality at 0.5 mg after 48 hr relative to control; assay type: functional
[2] = system: Leptinotarsa decemlineata; assay: Insecticidal activity against adult Leptinotarsa decemlineata infested potato leaves assessed as mortality at 1 mg after 12 hr relative to control; assay type: functional
[3] = system: Leptinotarsa decemlineata; assay: Insecticidal activity against adult Leptinotarsa decemlineata infested potato leaves assessed as mortality at 1 mg after 96 hr relative to control; assay type: functional
[4] = system: Leptinotarsa decemlineata; assay type: functional, Instar larval stage
[5] = system: Leptinotarsa decemlineata; assay: Insecticidal activity against first-instar larval stage of Leptinotarsa decemlineata infested potato leaves assessed as mortality at 1 mg after 48 hr relative to control; assay type: functional
[6] = system: Leptinotarsa decemlineata; assay: Insecticidal activity against first-instar larval stage of Leptinotarsa decemlineata infested potato leaves assessed as mortality at 0.5 mg after 48 hr relative to control; assay type: functional
[7] = system: Leptinotarsa decemlineata; assay type: functional, Instar larval stage; remark: listed apart in the source
[8] = system: Leptinotarsa decemlineata; assay: Insecticidal activity against third-instar larval stage of Leptinotarsa decemlineata infested potato leaves assessed as mortality at 1 mg after 24 hr relative to control; assay type: functional
[9] = system: Leptinotarsa decemlineata; assay type: functional, Instar larval stage; remark: listed apart in the source
[10] = system: Leptinotarsa decemlineata; assay: Insecticidal activity against second-instar larval stage of Leptinotarsa decemlineata infested potato leaves assessed as mortality at 1 mg after 12 hr relative to control; assay type: functional
[11] = system: Leptinotarsa decemlineata; assay: Insecticidal activity against first-instar larval stage of Leptinotarsa decemlineata infested potato leaves assessed as mortality at 1 mg after 12 hr relative to control; assay type: functional
[12] = system: Leptinotarsa decemlineata; assay: Insecticidal activity against third-instar larval stage of Leptinotarsa decemlineata infested potato leaves assessed as mortality at 0.5 mg after 12 hr relative to control; assay type: functional
[13] = system: Leptinotarsa decemlineata; assay: Insecticidal activity against adult Leptinotarsa decemlineata infested potato leaves assessed as mortality at 1 mg after 24 hr relative to control; assay type: functional
[14] = system: Leptinotarsa decemlineata; assay type: functional, Instar larval stage; remark: listed apart in the source
[15] = system: Leptinotarsa decemlineata; assay: Insecticidal activity against first-instar larval stage of Leptinotarsa decemlineata infested potato leaves assessed as mortality at 1 mg after 96 hr relative to control; assay type: functional
[16] = system: Leptinotarsa decemlineata; assay: Insecticidal activity against adult Leptinotarsa decemlineata infested potato leaves assessed as mortality at 0.5 mg after 12 hr relative to control; assay type: functional
[17] = system: Leptinotarsa decemlineata; assay: Insecticidal activity against third-instar larval stage of Leptinotarsa decemlineata infested potato leaves assessed as mortality at 1 mg after 12 hr relative to control; assay type: functional
[18] = system: Leptinotarsa decemlineata; assay type: functional, Instar larval stage; remark: listed apart in the source
[19] = system: Leptinotarsa decemlineata; assay type: functional, Instar larval stage; remark: listed apart in the source
[20] = system: Leptinotarsa decemlineata; assay: Insecticidal activity against adult Leptinotarsa decemlineata infested potato leaves assessed as mortality at 1 mg after 48 hr relative to control; assay type: functional
[21] = system: Leptinotarsa decemlineata; assay: Insecticidal activity against first-instar larval stage of Leptinotarsa decemlineata infested potato leaves assessed as mortality at 1 mg after 24 hr relative to control; assay type: functional
[22] = system: Leptinotarsa decemlineata; assay: Insecticidal activity against adult Leptinotarsa decemlineata infested potato leaves assessed as mortality at 0.5 mg after 24 hr relative to control; assay type: functional
[23] = system: Leptinotarsa decemlineata; assay type: functional, Instar larval stage; remark: listed apart in the source
[24] = system: Leptinotarsa decemlineata; assay: Insecticidal activity against first-instar larval stage of Leptinotarsa decemlineata infested potato leaves assessed as mortality at 0.5 mg after 24 hr relative to control; assay type: functional
[25] = system: Leptinotarsa decemlineata; assay: Insecticidal activity against first-instar larval stage of Leptinotarsa decemlineata infested potato leaves assessed as mortality at 0.5 mg after 96 hr relative to control; assay type: functional
[26] = system: Leptinotarsa decemlineata; assay: Insecticidal activity against first-instar larval stage of Leptinotarsa decemlineata infested potato leaves assessed as mortality at 0.5 mg after 12 hr relative to control; assay type: functional
[27] = system: Leptinotarsa decemlineata; assay: Insecticidal activity against second-instar larval stage of Leptinotarsa decemlineata infested potato leaves assessed as mortality at 0.5 mg after 12 hr relative to control; assay type: functional
[28] = system: Leptinotarsa decemlineata; assay: Insecticidal activity against third-instar larval stage of Leptinotarsa decemlineata infested potato leaves assessed as mortality at 0.5 mg after 24 hr relative to control; assay type: functional
[29] = system: Leptinotarsa decemlineata; assay type: functional, Instar larval stage; remark: listed apart in the source
[30] = system: Leptinotarsa decemlineata; assay type: functional, Instar larval stage; remark: listed apart in the source
[31] = system: Leptinotarsa decemlineata; assay type: functional, Instar larval stage; remark: listed apart in the source
[32] = system: Leptinotarsa decemlineata; assay: Insecticidal activity against adult Leptinotarsa decemlineata infested potato leaves assessed as mortality at 0.5 mg after 96 hr relative to control; assay type: functional
[33] = system: Leptinotarsa decemlineata; assay: Insecticidal activity against first-instar larval stage of Leptinotarsa decemlineata infested potato leaves assessed as mortality at 10 ul after 12 hr relative to control; assay type: functional
[34] = system: Leptinotarsa decemlineata; assay: Insecticidal activity against adult Leptinotarsa decemlineata infested potato leaves assessed as mortality at 10 ul after 24 hr relative to control; assay type: functional
[35] = system: Leptinotarsa decemlineata; assay: Insecticidal activity against second-instar larval stage of Leptinotarsa decemlineata infested potato leaves assessed as mortality at 20 ul after 96 hr (reference value: 3.3 +/- 3.3%); assay type: functional
[36] = system: Leptinotarsa decemlineata; assay: Insecticidal activity against third-instar larval stage of Leptinotarsa decemlineata infested potato leaves assessed as mortality at 20 ul after 96 hr (reference value: 3.3 +/- 3.3%); assay type: functional
[37] = system: Leptinotarsa decemlineata; assay: Insecticidal activity against first-instar larval stage of Leptinotarsa decemlineata infested potato leaves assessed as mortality at 10 ul after 24 hr relative to control; assay type: functional
[38] = system: Leptinotarsa decemlineata; assay: Insecticidal activity against second-instar larval stage of Leptinotarsa decemlineata infested potato leaves assessed as mortality at 10 ul after 24 hr (reference value: 3.3 +/- 3.3%); assay type: functional
[39] = system: Leptinotarsa decemlineata; assay: Insecticidal activity against first-instar larval stage of Leptinotarsa decemlineata infested potato leaves assessed as mortality at 20 ul after 24 hr relative to control; assay type: functional
[40] = system: Leptinotarsa decemlineata; assay: Insecticidal activity against first-instar larval stage of Leptinotarsa decemlineata infested potato leaves assessed as mortality at 20 ul after 96 hr relative to control; assay type: functional
[41] = system: Leptinotarsa decemlineata; assay: Insecticidal activity against third-instar larval stage of Leptinotarsa decemlineata infested potato leaves assessed as mortality at 20 ul after 24 hr relative to control; assay type: functional
[42] = system: Leptinotarsa decemlineata; assay: Insecticidal activity against first-instar larval stage of Leptinotarsa decemlineata infested potato leaves assessed as mortality at 10 ul after 96 hr relative to control; assay type: functional
[43] = system: Leptinotarsa decemlineata; assay: Insecticidal activity against second-instar larval stage of Leptinotarsa decemlineata infested potato leaves assessed as mortality at 20 ul after 48 hr (reference value: 3.3 +/- 3.3%); assay type: functional
[44] = system: Leptinotarsa decemlineata; assay: Insecticidal activity against second-instar larval stage of Leptinotarsa decemlineata infested potato leaves assessed as mortality at 20 ul after 24 hr (reference value: 3.3 +/- 3.3%); assay type: functional
[45] = system: Leptinotarsa decemlineata; assay: Insecticidal activity against adult Leptinotarsa decemlineata infested potato leaves assessed as mortality at 20 ul after 96 hr relative to control; assay type: functional
[46] = system: Leptinotarsa decemlineata; assay: Insecticidal activity against second-instar larval stage of Leptinotarsa decemlineata infested potato leaves assessed as mortality at 10 ul after 96 hr (reference value: 3.3 +/- 3.3%); assay type: functional
[47] = system: Leptinotarsa decemlineata; assay: Insecticidal activity against second-instar larval stage of Leptinotarsa decemlineata infested potato leaves assessed as mortality at 10 ul after 12 hr relative to control; assay type: functional
[48] = system: Leptinotarsa decemlineata; assay: Insecticidal activity against second-instar larval stage of Leptinotarsa decemlineata infested potato leaves assessed as mortality at 10 ul after 48 hr (reference value: 3.3 +/- 3.3%); assay type: functional
[49] = system: Leptinotarsa decemlineata; assay: Insecticidal activity against first-instar larval stage of Leptinotarsa decemlineata infested potato leaves assessed as mortality at 20 ul after 12 hr relative to control; assay type: functional
[50] = system: Leptinotarsa decemlineata; assay: Insecticidal activity against third-instar larval stage of Leptinotarsa decemlineata infested potato leaves assessed as mortality at 20 ul after 12 hr relative to control; assay type: functional
[51] = system: Leptinotarsa decemlineata; assay: Insecticidal activity against adult Leptinotarsa decemlineata infested potato leaves assessed as mortality at 20 ul after 24 hr relative to control; assay type: functional
[52] = system: Leptinotarsa decemlineata; assay: Insecticidal activity against third-instar larval stage of Leptinotarsa decemlineata infested potato leaves assessed as mortality at 20 ul after 48 hr (reference value: 3.3 +/- 3.3%); assay type: functional
[53] = system: Leptinotarsa decemlineata; assay: Insecticidal activity against adult Leptinotarsa decemlineata infested potato leaves assessed as mortality at 10 ul after 96 hr relative to control; assay type: functional
[54] = system: Leptinotarsa decemlineata; assay: Insecticidal activity against second-instar larval stage of Leptinotarsa decemlineata infested potato leaves assessed as mortality at 20 ul after 12 hr relative to control; assay type: functional
[55] = system: Leptinotarsa decemlineata; assay: Insecticidal activity against third-instar larval stage of Leptinotarsa decemlineata infested potato leaves assessed as mortality at 10 ul after 48 hr (reference value: 3.3 +/- 3.3%); assay type: functional
[56] = system: Leptinotarsa decemlineata; assay: Insecticidal activity against third-instar larval stage of Leptinotarsa decemlineata infested potato leaves assessed as mortality at 10 ul after 12 hr relative to control; assay type: functional
[57] = system: Leptinotarsa decemlineata; assay: Insecticidal activity against adult Leptinotarsa decemlineata infested potato leaves assessed as mortality at 10 ul after 12 hr relative to control; assay type: functional
[58] = system: Leptinotarsa decemlineata; assay: Insecticidal activity against third-instar larval stage of Leptinotarsa decemlineata infested potato leaves assessed as mortality at 10 ul after 96 hr (reference value: 3.3 +/- 3.3%); assay type: functional
[59] = system: Leptinotarsa decemlineata; assay: Insecticidal activity against first-instar larval stage of Leptinotarsa decemlineata infested potato leaves assessed as mortality at 10 ul after 48 hr relative to control; assay type: functional
[60] = system: Leptinotarsa decemlineata; assay: Insecticidal activity against adult Leptinotarsa decemlineata infested potato leaves assessed as mortality at 10 ul after 48 hr relative to control; assay type: functional
[61] = system: Leptinotarsa decemlineata; assay: Insecticidal activity against first-instar larval stage of Leptinotarsa decemlineata infested potato leaves assessed as mortality at 20 ul after 48 hr relative to control; assay type: functional
[62] = system: Sitophilus granarius; assay: Insecticidal activity against Sitophilus granarius (granary weevil) assessed as mortality; assay type: functional
[63] = system: Leptinotarsa decemlineata; assay: Insecticidal activity against adult Leptinotarsa decemlineata infested potato leaves assessed as mortality at 20 ul after 48 hr relative to control; assay type: functional
[64] = system: Leptinotarsa decemlineata; assay: Insecticidal activity against adult Leptinotarsa decemlineata infested potato leaves assessed as mortality at 20 ul after 12 hr relative to control; assay type: functional
[65] = system: Leptinotarsa decemlineata; assay: Insecticidal activity against third-instar larval stage of Leptinotarsa decemlineata infested potato leaves assessed as mortality at 10 ul after 24 hr relative to control; assay type: functional

CC1(C)[C@H](/C=C(\Cl)C(F)(F)F)[C@@H]1C(=O)O[C@@H](C#N)c1cccc(Oc2ccccc2)c1 (relative stereo) [REL-LAMBDA CYHALOTHRIN]
mortality [1]: 100% | mortality [2]: 90% | mortality [3]: 100% | mortality [4]: 100% | mortality [5]: 100% | mortality [6]: 100% | mortality [7]: 86.7% | mortality [8]: 90% | mortality [9]: 100% | mortality [10]: 80% | mortality [11]: 60% | mortality [12]: 73.3% | mortality [13]: 100% | mortality [14]: 100% | mortality [15]: 100% | mortality [16]: 100% | mortality [17]: 86.7% | mortality [18]: 100% | mortality [19]: 100% | mortality [20]: 100% | mortality [21]: 90% | mortality [22]: 100% | mortality [23]: 93.3% | mortality [24]: 93.3% | mortality [25]: 100% | mortality [26]: 63.3% | mortality [27]: 73.3% | mortality [28]: 86.7% | mortality [29]: 100% | mortality [30]: 93.3% | mortality [31]: 100% | mortality [32]: 100%

C=C(C)[C@H]1CC=C(C)CC1 [D-LIMONENE]
mortality [33]: 23.3% | mortality [34]: 100% | mortality [35]: 90% | mortality [36]: 70% | mortality [37]: 50% | mortality [38]: 86.7% | mortality [39]: 76.7% | mortality [40]: 90% | mortality [41]: 60% | mortality [42]: 90% | mortality [43]: 80% | mortality [44]: 80% | mortality [45]: 100% | mortality [46]: 93.3% | mortality [47]: 53.3% | mortality [48]: 90% | mortality [49]: 43.3% | mortality [50]: 33.3% | mortality [51]: 100% | mortality [52]: 63.3% | mortality [53]: 100% | mortality [54]: 76.7% | mortality [55]: 50% | mortality [56]: 0% | mortality [57]: 83.3% | mortality [58]: 53.3% | mortality [59]: 83.3% | mortality [60]: 100% | mortality [61]: 80% | mortality [62]: 90% | mortality [63]: 100% | mortality [64]: 90% | mortality [65]: 46.7%
